Experimental data from patent publication US20230103444A1 (The Regents of the University of Colorado, a Body Corporate, priority 2020, published 2023).
Where two headings read alike, the source gives them in different places.

What was measured:
[1] = biological target: T1, cat-CHD1L ATPase (Homo sapiens, UniProt Q86WJ1); assay: CHD1L ATPase assay with recombinant catalytic domain (cat-CHD1L); format: biochemical; settings: for inhibition at 20 µM: confirmed HTS hits, HTS at 20 μM, read-out: inhibition against cat-CHD1L ATPase
T1 construct: inferred from Ni-NTA / imidazole purification; made in house; host or cells: E. coli Rosetta 2 (DE3) pLysS; constructs were a gift from Helena Berglund, Karolinska Institute
T1 sequence (Q86WJ1 16-611 limits assumed): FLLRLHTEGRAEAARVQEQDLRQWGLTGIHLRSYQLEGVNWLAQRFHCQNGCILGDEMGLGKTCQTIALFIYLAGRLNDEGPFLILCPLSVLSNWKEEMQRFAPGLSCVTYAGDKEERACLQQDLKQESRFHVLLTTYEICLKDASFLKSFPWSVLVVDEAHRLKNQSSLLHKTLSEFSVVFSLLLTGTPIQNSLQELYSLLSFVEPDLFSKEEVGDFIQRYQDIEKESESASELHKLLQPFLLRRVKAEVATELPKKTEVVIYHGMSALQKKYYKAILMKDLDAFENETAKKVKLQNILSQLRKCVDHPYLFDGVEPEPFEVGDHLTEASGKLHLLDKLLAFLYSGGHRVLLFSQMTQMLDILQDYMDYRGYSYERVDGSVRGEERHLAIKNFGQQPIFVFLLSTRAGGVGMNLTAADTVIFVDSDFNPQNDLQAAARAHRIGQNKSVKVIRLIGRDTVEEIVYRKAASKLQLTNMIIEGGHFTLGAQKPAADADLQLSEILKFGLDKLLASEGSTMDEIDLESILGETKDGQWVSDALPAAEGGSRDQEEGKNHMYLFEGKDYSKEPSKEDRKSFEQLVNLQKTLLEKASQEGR
Method: All reactions were carried out using low volume non-binding surface 384-well plates (Corning Inc., Corning N.Y.). cat-CHD1L or fl-CHD1L (100 nM) and 200 nM c-Myc DNA or mononucelosome (Active Motif, Carlsbad, Calif.) were added to a buffer containing 50 mM Tris pH 7.5, 50 mM NaCl, 1 mM DTT, 5% glycerol, and the reaction was initiated by the addition of 10 μM ATP (New England Biolabs, Ipswich, Mass.) to a total volume of 10 μL and incubated at 37° C. for 1 h. ATPase activity was assayed by adding 500 nM of Phosphate Sensor (Life Technologies, Carlsbad, Calif.), containing labeled phosphate-binding protein, specifically labeled with the fluorophore MDCC, and measuring excitation (430 nm) and emission (450 nm) immediately on an EnVision® plate reader (PerkinElmer, Hopkinton, Mass.). An inorganic phosphate standard curve was used to convert the fluorescence to [Pi], and enzyme kinetics were determined using Prism8 (GraphPad Software, San Diego, Calif.).
Assay composition was the same as described above using cat-CHD1L, except that the reaction mixture volume was modified to accommodate addition of drug or DMSO. Using a Janus® liquid handler (PerkinElmer, Hopkinton, Mass.), a selected amount of compounds dissolved in 100% DMSO were mixed with 50 mM Tris pH 7.5, 50 mM NaCl, 1 mM DTT, 5% glycerol buffer to 200 μM in 10% DMSO. […] The negative control used was 1% DMSO and 10 mM EDTA was used as a positive control. Reactions were initiated with the addition of 10 μM ATP and incubated at 37° C. for 1 h. ATPase activity was measured by fluorescence by adding 500 nM Phosphate Sensor. cat-CHD1L was screened against a 20,000-compound diversity set from Life Chemicals (Woodbridge, Conn.) and a Kinase Inhibitor library from Selleck Chemicals (Houston, Tex.).
CHD1L Enzyme ATPase Assay. […] All reactions were carried out using low volume nonbinding surface 384-well plates (Corning Inc., Corning, N.Y.). […] The reaction was initiated by the addition of 10 μmol/L ATP (New England Biolabs, Ipswich, Mass.) to a total volume of 10 μL and incubated at 37° C. for 1 hour. ATPase activity was measured by adding 500 nmol/L of Phosphate Sensor (ThermoFisher, Waltham, Mass.) measuring excitation (430 nm) and emission (450 nm) immediately on an Envision plate reader (PerkinElmer, Waltham, Mass.). Background signal was determined by using all assay components excluding the enzyme.

[2] = tested on: HCT116 tumor organoids; assay: Tumor organoid cytotoxicity (CellTiter-Glo 3D); format: cell-based, human; settings: Homo sapiens
Method: Cell based cytotoxicity dose response and combination studies. […] Plates were then incubated for 3 days before treatment.
Cell Line Tumor Organoid Culture.
Tumor Organoid Cytotoxicity.

[3] = tested on: SW620 tumor organoids; assay: Tumor organoid cytotoxicity (CellTiter-Glo 3D)
[4] = Table 6, read-out: cat-CHD1L inhibition IC50
[5] = HCT-116, 72 h, Table 6, read-out: 3 D Cytotoxicity 72 hr IC50 (μM) HCT116
[6] = Homo sapiens, SW-620, 72 h, read-out: 3 D Cytotoxicity 72 hr IC50 (μM) SW620
[7] = Homo sapiens, SW-620, read-out: Tumor Organoid Cytotoxicity IC50 (μM) SW620
[8] = HCT-116, single agent, Table 4A, read-out: Tumor Organoid Cytotoxicity IC50 (μM) HCT116
[9] = units given with the values (nM, μM), read-out: activity in dose response studies against cat-CHD1L ATPase (IC50, FIG. 1A)

SMILES	IC50 [1, 4] [nM]	IC50 [2, 5] [µM]	IC50 [3, 6] [µM]	IC50 [3, 7] [µM]	further results
Cc1cc(Nc2ccc(NC(=O)Cn3ccc4ccccc43)cc2)nc(N2CCCC2)n1 [Compound 6.24, 2-(1H-indol-1-yl)-N-(4-((6-methyl-2-(pyrrolidin-1-yl)pyrimidin-4-yl)amino)phenyl)acetamide]	–	–	3	2.7	–
Cc1cc(Nc2ccc(NC(=O)Cc3c[nH]c4ncccc34)cc2)nc(N2CCCC2)n1 [Compound 6.20, N-(4-((6-methyl-2-(pyrrolidin-1-yl)pyrimidin-4-yl)amino)phenyl)-2-(1H-pyrrolo[2,3-b]pyridin-3-yl)acetamide]	–	–	2.2	2.1	–
Cc1cc(Nc2ccc(NC(=O)c3cn(C)c4ccccc34)cc2)nc(N2CCCC2)n1 [Compound 6.19, 1-methyl-N-(4-((6-methyl-2-(pyrrolidin-1-yl)pyrimidin-4-yl)amino)phenyl)-1H-indole-3-carboxamide]	–	> 40	7.7	7.7	IC50 [2, 8]: > 30 µM
Cc1cc(Nc2ccc(NC(=O)Cc3c[nH]c4ccc(O)cc34)cc2)nc(N2CCCC2)n1 [Compound 6.25, 2-(5-hydroxy-1H-indol-3-yl)-N-(4-((6-methyl-2-(pyrrolidin-1-yl)pyrimidin-4-yl)amino)phenyl) acetamide]	–	–	17.6	19.7	–
Cc1cc(Nc2ccc(NC(=O)Cc3c[nH]c4ccc(Br)cc34)cc2)nc(N2CCCC2)n1 [Compound 6.23, 2-(5-bromo-1H-indol-3-yl)-N-(4-((6-methyl-2-(pyrrolidin-1-yl)pyrimidin-4-yl)amino)phenyl) acetamide]	–	–	–	5.7	–
CCc1ccc2[nH]cc(CC(=O)Nc3ccc(Nc4cc(C)nc(N5CCCC5)n4)cc3)c2c1 [Compound 6.27, 2-(5-ethyl-1H-indol-3-yl)-N-(4-((6-methyl-2-(pyrrolidin-1-yl)pyrimidin-4-yl)amino)phenyl) acetamide]	–	–	3	2.1	–
Cc1cc(Nc2ccc(NC(=O)Cn3cc(CC4CC4)c4ccccc43)cc2)nc(N2CCCC2)n1 [Compound 6.26, 2-(3-(cyclopropylmethyl)-1H-indol-1-yl)-N-(4-((6-methyl-2-(pyrrolidin-1-yl)pyrimidin-4-yl)amino)phenyl)acetamide]	–	–	4.7	5.5	–
COc1cc(C)c(C(C)C)cc1S(=O)(=O)NCCN1CCOCC1 [Compound 3]	–	–	–	–	inhibition at 20 µM [1]: > 50%; IC50 [1, 9]: 900 to 5000 nM
Cc1cc(Nc2ccc(NC(=O)CCCc3c[nH]c4ccccc34)cc2)nc(N2CCCC2)n1 [Compound 6.7, 4-(1H-indol-3-yl)-N-(4-((6-methyl-2-(pyrrolidin-1-yl)pyrimidin-4-yl)amino)phenyl)butanamide]	–	17.6	13	12.7	IC50 [2, 8]: 17.6 µM
O=S(=O)(NCCN1CCOCC1)c1ccc(C2CCCCC2)cc1 [Compound 1]	–	–	–	–	inhibition at 20 µM [1]: > 50%; IC50 [1, 9]: 900 to 5000 nM
Cc1cc(Nc2ccc(NC(=O)/C=C/c3c[nH]c4ccccc34)cc2)nc(N2CCCC2)n1 [Compound 6.8, (E)-3-(1H-indol-3-yl)-N-(4-((6-methyl-2-(pyrrolidin-1-yl)pyrimidin-4-yl)amino)phenyl)-acrylamide]	–	6.8	4.3	3.6	IC50 [2, 8]: 6.85 µM
Cc1cc(Nc2ccc(NC(=O)Cc3cn(S(=O)(=O)c4ccc(C(F)(F)F)cc4)c4ccccc34)cc2)nc(N2CCCC2)n1 [Compound 6.29, N-(4-((6-methyl-2-(pyrrolidin-1-yl)pyrimidin-4-yl)amino)phenyl)-2-(1-((4-(trifluoromethyl)phenyl)sulfonyl)-1H-indol-3-yl)acetamide]	–	–	5.4	5.1	–
Cc1ccc(-c2ccc(S(=O)(=O)NCCN3CCOCC3)cc2)cc1C [Compound 2]	–	–	–	–	inhibition at 20 µM [1]: > 50%; IC50 [1, 9]: 900 to 5000 nM
Cc1cc(Nc2ccc(NC(=O)CCc3c[nH]c4ccccc34)cc2)nc(N2CCCC2)n1 [Compound 6.6, 3-(1H-indol-3-yl)-N-(4-((6-methyl-2-(pyrrolidin-1-yl)pyrimidin-4-yl)amino)phenyl) propanamide]	–	> 40	> 40	> 40	IC50 [2, 8]: > 30 µM
Cc1cc(Nc2ccc(NC(=O)CC3C(=O)Nc4ccccc43)cc2)nc(N2CCCC2)n1 (stereo not drawn) [Compound 6.30, N-(4-((6-methyl-2-(pyrrolidin-1-yl)pyrimidin-4-yl)amino)phenyl)-2-(2-oxoindolin-3-yl) acetamide]	–	–	6.1	6	–
COc1ccc2[nH]cc(CC(=O)Nc3ccc(Nc4cc(C)nc(N5CCCC5)n4)cc3)c2c1 [Compound 6.22, 2-(5-methoxy-1H-indol-3-yl)-N-(4-((6-methyl-2-(pyrrolidin-1-yl)pyrimidin-4-yl)amino)phenyl) acetamide]	–	–	–	–	IC50 ([3]; read-out: 3 D Cytotoxicity 72 hr IC50 (μM) SW620, Table 6): 11.3 µM; IC50 ([3]; read-out: Tumor Organoid Cytotoxicity IC50 (μM) SW620, single agent, Table 4A, updated experimental, rounded to one decimal): 12.6 µM

Further lines, with some results ahead:

IC50 [1, 4] [nM]	SMILES	IC50 [2, 5] [µM]	IC50 [3, 6] [µM]	IC50 [3, 7] [µM]	further results
10300	Cc1cc(Nc2ccc(NC(=O)Cc3cccnc3)cc2)nc(N2CCCC2)n1 [Compound 6.43]	19.1	–	–	–
3500	Cc1cc(NCc2ccc(NC(=O)Cc3cc(Br)cs3)cc2)n2nc(N)nc2n1 [Compound 6.54]	> 40	> 40	–	–
700	Cc1cc(NCc2ccc(NC(=O)Cc3cc(Br)cs3)cc2)nc(N2CCCCC2)n1 [Compound 6.46]	8.3	12.5	–	–
1200	Cc1cc(NCc2ccc(NC(=O)Cc3cc(Br)cs3)cc2)nc(N2CCN(C)CC2)n1 [Compound 6.44]	14	22.7	–	–
> 20000	Cc1cc(Nc2ccc(NC(=O)Cn3ccnc3)cc2)nc(N2CCCC2)n1 [Compound 6.50]	26.2	> 40	–	–
800	Cc1cc(N2CCCCC2)nc(NCc2ccc(NC(=O)Cc3cc(Br)cs3)cc2)n1 [Compound 6.47]	9.3	13.8	–	–
2500	Cc1cc(NCc2ccc(NC(=O)Cc3cc(Br)cs3)cc2)n2nc(N3CCCC3)nc2n1 [Compound 6.56]	> 40	> 40	–	–
1800	COC(=O)C1CCCN1c1nc(C)cc(Nc2ccc(NC(=O)Cc3cc(Br)cs3)cc2)n1 (stereo not drawn) [Compound 6.35]	–	8.6	–	CHD1L enzyme inhibition, in words ([1]; recombinant cat-CHD1L): good enzyme inhibition; IC50 ([3]; Homo sapiens, SW-620, read-out: IC50 of cytotoxicity in SW620 cells): < 10 µM
17700	Cc1cc(Nc2ccc(NC(=O)Cc3ccccn3)cc2)nc(N2CCCC2)n1 [Compound 6.42]	20.9	–	–	–
3000	COC(=O)C1CCCN1c1nc(C)cc(Nc2ccc(NC(=O)Cc3cccs3)cc2)n1 (stereo not drawn) [Compound 6.34]	–	> 20	–	–
> 20000	Cc1cc(Nc2ccc(NC(=O)Cc3cc(Br)cs3)cc2)nc(N2CCCC2C(=O)O)n1 (stereo not drawn) [Compound 6.36]	–	> 20	–	–
